Data: PubChem BioAssay AID248 (DTP/NCI, 2004)
Several values for one entry are separate records, joined by “and”; a condition that tells them apart may be missing. Equal values may be shown once. Inconclusive results and toxic doses are left out. Rule as the data show it: active = T/C of 150% or more; inactive = T/C below 125%.

System: L1210 leukemia ip in BDF1 mice, survival T/C
Test: NCI In Vivo Anticancer Drug Screen. Data for tumor model L1210 Leukemia (intraperitoneal) in B6D2F1 (BDF1) mice
Conditions: endpoint: mean survival time, higher = longer survival
How it was run: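 Transplanted-tumor mice were given test agent; controls received vehicle only. Survival readings from the two groups were divided (treated over control).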

[1] = dose: 75.0 mg/kg/injection, schedule: Q01DX001 (ip), vehicle: saline
[2] = dose: 150.0 mg/kg/injection, schedule: Q01DX001 (ip), vehicle: saline
[3] = dose: 100.0 mg/kg/injection, schedule: Q01DX001 (ip), vehicle: saline
[4] = dose: 200.0 mg/kg/injection, schedule: Q01DX001 (ip), vehicle: saline
[5] = dose: 400.0 mg/kg/injection, schedule: Q01DX001 (ip), vehicle: saline
[6] = dose: 100.0 mg/kg/injection, schedule: Q04DX002 (ip), vehicle: saline
[7] = dose: 100.0 mg/kg/injection, schedule: Q01DX001 (ip), vehicle: Klucel (hydroxypropylcellulose) (HPC)
[8] = dose: 200.0 mg/kg/injection, schedule: Q01DX001 (ip), vehicle: Klucel (hydroxypropylcellulose) (HPC)
[9] = dose: 400.0 mg/kg/injection, schedule: Q01DX001 (ip), vehicle: Klucel (hydroxypropylcellulose) (HPC)
[10] = dose: 50.0 mg/kg/injection, schedule: Q01DX009 (ip), vehicle: saline with Tween-80
[11] = dose: 100.0 mg/kg/injection, schedule: Q01DX009 (ip), vehicle: saline with Tween-80
[12] = dose: 100.0 mg/kg/injection, schedule: Q01DX009 (ip), vehicle: Klucel (hydroxypropylcellulose) (HPC)
[13] = dose: 200.0 mg/kg/injection, schedule: Q01DX009 (ip), vehicle: Klucel (hydroxypropylcellulose) (HPC)
[14] = dose: 400.0 mg/kg/injection, schedule: Q01DX009 (ip), vehicle: Klucel (hydroxypropylcellulose) (HPC)
[15] = dose: 100.0 mg/kg/injection, schedule: Q01DX009 (ip), vehicle: saline
[16] = dose: 200.0 mg/kg/injection, schedule: Q01DX009 (ip), vehicle: saline
[17] = dose: 400.0 mg/kg/injection, schedule: Q01DX009 (ip), vehicle: saline

Measured: T/C

NC(CS(N)(=O)=O)C(=O)O (stereo unspecified)
inactive: [1] 97 % of control | [2] 103 % of control | dose: 300.0 mg/kg/injection, schedule: Q01DX001 (ip), vehicle: saline 102 % of control

CCc1ccc(/C=C/c2ccc(O)c3ccccc23)[n+](C)c1
inactive: [1] 97 % of control | [2] 105 % of control

CC(C)C(C(=O)O)C(=O)O
inactive: [3] 102 % of control | [4] 104 % of control | [5] 112 % of control

O=C(NCCO)Nc1cccc(Cl)c1
inactive: [6] 100 % of control | dose: 200.0 mg/kg/injection, schedule: Q04DX002 (ip), vehicle: saline 100 % of control | dose: 400.0 mg/kg/injection, schedule: Q04DX002 (ip), vehicle: saline 111 % of control

CCCN(CCC)c1ccc(/C=C\c2ccncc2)cc1
inactive: [7] 98 % of control | [8] 103 % of control | [9] 98 % of control

CCOC(CCc1c(-c2ccccc2)nc(N)[nH]c1=O)OCC
inactive: dose: 100.0 mg/kg/injection, schedule: Q01DX009 (ip), vehicle: other 110 % of control | dose: 200.0 mg/kg/injection, schedule: Q01DX009 (ip), vehicle: other 102 % of control | dose: 400.0 mg/kg/injection, schedule: Q01DX009 (ip), vehicle: other 93 % of control

O=C(COc1ccc(Cl)cc1Cl)Nc1ccc(F)cc1
inactive: dose: 25.0 mg/kg/injection, schedule: Q01DX009 (ip), vehicle: saline with Tween-80 93 % of control | [10] 91 % of control | [11] 104 % of control and 88 % of control

O=C(/C=C/c1ccc(Cl)cc1)c1ccc(Br)cc1
inactive: [12] 94 % of control | [13] 94 % of control | [14] 92 % of control

O=C1CC2CC1C(C(=O)O)C2C(=O)O (stereo unspecified)
inactive: [3] 98 % of control | [15] 96 % of control | [4] 96 % of control | [16] 96 % of control | [5] 96 % of control and 98 % of control | [17] 98 % of control

C=CS(=O)(=O)CC
inactive: dose: 25.0 mg/kg/injection, schedule: Q04DX002 (ip), vehicle: saline 119 % of control | dose: 50.0 mg/kg/injection, schedule: Q04DX002 (ip), vehicle: saline 102 % of control | [6] 102 % of control

O=C(NC(CS(=O)(=O)O)C(=O)O)OCc1ccccc1 (stereo unspecified)
inactive: [7] 93 % of control | dose: 100.0 mg/kg/injection, schedule: Q04DX003 (ip), vehicle: Klucel (hydroxypropylcellulose) (HPC) 93 % of control | [8] 97 % of control | dose: 200.0 mg/kg/injection, schedule: Q04DX003 (ip), vehicle: Klucel (hydroxypropylcellulose) (HPC) 95 % of control | [9] 91 % of control

O=C1CCC(=O)N1CCC(=O)N(C(=O)NC1CCCCC1)C1CCCCC1
inactive: dose: 50.0 mg/kg/injection, schedule: Q01DX009 (ip), vehicle: saline 98 % of control | [15] 95 % of control | dose: 100.0 mg/kg/injection, schedule: Q04DX003 (ip), vehicle: saline with Tween-80 100 % of control | [16] 101 % of control | dose: 200.0 mg/kg/injection, schedule: Q04DX003 (ip), vehicle: saline with Tween-80 106 % of control | [17] 98 % of control | dose: 400.0 mg/kg/injection, schedule: Q04DX003 (ip), vehicle: saline with Tween-80 100 % of control

C=CC(=O)N(C)OC
inactive: [3] 101 % of control | dose: 100.0 mg/kg/injection, schedule: Q04DX003 (ip), vehicle: saline 100 % of control | [4] 96 % of control | dose: 200.0 mg/kg/injection, schedule: Q04DX003 (ip), vehicle: saline 104 % of control | [5] 112 % of control | dose: 400.0 mg/kg/injection, schedule: Q04DX003 (ip), vehicle: saline 98 % of control

C[N+](C)(Cc1ccccc1)C1c2ccccc2-c2ccc(Br)cc21 (stereo unspecified)
inactive: dose: 12.5 mg/kg/injection, schedule: Q01DX009 (ip), vehicle: Klucel (hydroxypropylcellulose) (HPC) 97 % of control | dose: 12.5 mg/kg/injection, schedule: Q04DX003 (ip), vehicle: Klucel (hydroxypropylcellulose) (HPC) 94 % of control | dose: 25.0 mg/kg/injection, schedule: Q01DX009 (ip), vehicle: Klucel (hydroxypropylcellulose) (HPC) 92 % of control | dose: 25.0 mg/kg/injection, schedule: Q04DX003 (ip), vehicle: Klucel (hydroxypropylcellulose) (HPC) 94 % of control | dose: 50.0 mg/kg/injection, schedule: Q01DX009 (ip), vehicle: Klucel (hydroxypropylcellulose) (HPC) 96 % of control | dose: 50.0 mg/kg/injection, schedule: Q04DX003 (ip), vehicle: Klucel (hydroxypropylcellulose) (HPC) 88 % of control

CC(=O)OCCn1c(C)nc2cc(Cl)c(Cl)cc21
inactive: dose: 100.0 mg/kg/injection, schedule: Q04DX003 (ip), vehicle: acetone 94 % of control | dose: 200.0 mg/kg/injection, schedule: Q04DX003 (ip), vehicle: acetone 98 % of control | dose: 400.0 mg/kg/injection, schedule: Q04DX003 (ip), vehicle: acetone 93 % of control

C[C@]12CC[C@H]3[C@@H](CC[C@@H]4C[C@@H](O)CC[C@@]43C=O)[C@]13O[C@@H]3CC2c1ccc(=O)oc1 (stereo partly specified)
inactive: dose: 0.25 mg/kg/injection, schedule: Q01DX009 (ip), vehicle: Klucel (hydroxypropylcellulose) (HPC) 100 % of control | dose: 0.5 mg/kg/injection, schedule: Q01DX009 (ip), vehicle: Klucel (hydroxypropylcellulose) (HPC) 100 % of control | dose: 1.0 mg/kg/injection, schedule: Q01DX009 (ip), vehicle: Klucel (hydroxypropylcellulose) (HPC) 100 % of control

CCOC(=O)c1ccc(NC(=O)Oc2cc(C)ccc2C(C)C)cc1
inactive: [12] 94 % of control | [13] 94 % of control | [14] 94 % of control

CC(C)Oc1ccc(C(N)=S)c2ccccc12
inactive: [7] 105 % of control | [8] 109 % of control | [9] 102 % of control

O=C1CC(=O)N(c2ccccc2)C(=O)N1
inactive: [10] 99 % of control | [11] 99 % of control | dose: 200.0 mg/kg/injection, schedule: Q01DX009 (ip), vehicle: saline with Tween-80 99 % of control

Nc1nc(N)c(N=Nc2ccc(Cl)cc2)c(Cl)n1
inactive: dose: 100.0 mg/kg/injection, schedule: Q01DX001 (ip), vehicle: carboxymethylcellulose (CMC) 94 % of control | dose: 200.0 mg/kg/injection, schedule: Q01DX001 (ip), vehicle: carboxymethylcellulose (CMC) 97 % of control | dose: 400.0 mg/kg/injection, schedule: Q01DX001 (ip), vehicle: carboxymethylcellulose (CMC) 94 % of control

COc1ccc(C2(c3ccccc3)OC(=O)c3ccccc32)c2ccccc12 (stereo unspecified)
inactive: dose: 100.0 mg/kg/injection, schedule: Q01DX001 (ip), vehicle: other 110 % of control | dose: 100.0 mg/kg/injection, schedule: Q04DX003 (ip), vehicle: other 104 % of control | dose: 200.0 mg/kg/injection, schedule: Q01DX001 (ip), vehicle: other 92 % of control | dose: 200.0 mg/kg/injection, schedule: Q04DX003 (ip), vehicle: other 100 % of control | dose: 400.0 mg/kg/injection, schedule: Q01DX001 (ip), vehicle: other 86 % of control | dose: 400.0 mg/kg/injection, schedule: Q04DX003 (ip), vehicle: other 111 % of control

CCCCCCCCC(=O)NCc1ccc(O)c(OC)c1
inactive: dose: 1.56 mg/kg/injection, schedule: Q01DX009 (ip), vehicle: saline 93 % of control | dose: 3.12 mg/kg/injection, schedule: Q01DX009 (ip), vehicle: saline 101 % of control | dose: 6.25 mg/kg/injection, schedule: Q01DX009 (ip), vehicle: saline 90 % of control

O=C(CBr)c1ccncc1
inactive: dose: 5.0 mg/kg/injection, schedule: Q01DX001 (ip), vehicle: saline 103 % of control | dose: 10.0 mg/kg/injection, schedule: Q01DX001 (ip), vehicle: saline 103 % of control | dose: 20.0 mg/kg/injection, schedule: Q01DX001 (ip), vehicle: saline 94 % of control
